From publication PMC4929832 (Nature, 2016)

What was measured:
[1] = molecular target: AKT1 (Homo sapiens, UniProt P31749); experiment: kinase panel; assay type: biochemical
[2] = molecular target: CK1-GAMMA2 (Homo sapiens, UniProt P78368); experiment: kinase panel; assay type: biochemical
[3] = molecular target: PAK6 (Homo sapiens, UniProt Q9NQU5); experiment: kinase panel; assay type: biochemical
[4] = molecular target: AKT3 (Homo sapiens, UniProt Q9Y243); experiment: kinase panel; assay type: biochemical
AKT3, sequence (Q9Y243 whole entry): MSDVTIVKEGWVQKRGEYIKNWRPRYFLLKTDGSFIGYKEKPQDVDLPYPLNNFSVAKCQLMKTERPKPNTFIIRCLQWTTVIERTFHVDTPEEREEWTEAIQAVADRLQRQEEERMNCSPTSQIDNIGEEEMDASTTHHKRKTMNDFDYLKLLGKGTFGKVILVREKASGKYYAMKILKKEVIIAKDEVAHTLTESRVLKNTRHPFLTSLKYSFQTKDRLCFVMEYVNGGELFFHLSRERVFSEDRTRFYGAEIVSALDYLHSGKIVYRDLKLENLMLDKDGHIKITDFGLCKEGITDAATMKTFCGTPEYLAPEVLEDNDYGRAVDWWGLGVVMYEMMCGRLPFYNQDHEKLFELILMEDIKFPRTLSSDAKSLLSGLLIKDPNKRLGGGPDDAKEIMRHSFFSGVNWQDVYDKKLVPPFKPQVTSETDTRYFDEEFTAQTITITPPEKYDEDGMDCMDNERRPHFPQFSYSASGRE

[5] = molecular target: PDGFR-ALPHA (Homo sapiens, UniProt P16234); experiment: kinase panel; assay type: biochemical
PDGFR-ALPHA, sequence (P16234 24-1089): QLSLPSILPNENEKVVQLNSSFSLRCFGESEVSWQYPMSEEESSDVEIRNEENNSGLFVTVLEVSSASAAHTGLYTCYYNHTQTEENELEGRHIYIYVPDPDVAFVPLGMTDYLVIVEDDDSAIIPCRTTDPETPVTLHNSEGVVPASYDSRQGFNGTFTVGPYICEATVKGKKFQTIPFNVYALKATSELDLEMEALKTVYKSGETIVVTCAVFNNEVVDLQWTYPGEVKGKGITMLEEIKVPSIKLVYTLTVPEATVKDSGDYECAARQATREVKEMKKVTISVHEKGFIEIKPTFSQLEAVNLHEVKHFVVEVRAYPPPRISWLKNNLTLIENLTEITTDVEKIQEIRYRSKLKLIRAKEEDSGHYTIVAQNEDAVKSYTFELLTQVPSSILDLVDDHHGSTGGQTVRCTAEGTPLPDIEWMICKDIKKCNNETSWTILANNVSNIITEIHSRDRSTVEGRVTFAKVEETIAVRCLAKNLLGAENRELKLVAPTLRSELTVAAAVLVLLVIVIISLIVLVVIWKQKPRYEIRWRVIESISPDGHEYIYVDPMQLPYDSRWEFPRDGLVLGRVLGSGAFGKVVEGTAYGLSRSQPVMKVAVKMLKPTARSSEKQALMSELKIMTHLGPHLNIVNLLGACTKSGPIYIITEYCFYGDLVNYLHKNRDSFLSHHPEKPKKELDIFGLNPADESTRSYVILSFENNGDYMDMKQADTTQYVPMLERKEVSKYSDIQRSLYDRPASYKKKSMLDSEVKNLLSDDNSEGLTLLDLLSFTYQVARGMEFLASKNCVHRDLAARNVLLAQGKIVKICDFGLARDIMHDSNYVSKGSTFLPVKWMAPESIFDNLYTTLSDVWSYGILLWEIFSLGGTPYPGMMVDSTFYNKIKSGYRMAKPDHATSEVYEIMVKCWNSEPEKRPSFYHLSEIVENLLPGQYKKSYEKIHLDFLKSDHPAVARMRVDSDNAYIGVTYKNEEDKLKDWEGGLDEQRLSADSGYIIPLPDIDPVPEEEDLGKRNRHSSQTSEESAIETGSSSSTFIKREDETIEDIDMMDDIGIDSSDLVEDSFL

[6] = molecular target: CLK3 (Homo sapiens, UniProt P49761); experiment: kinase panel; assay type: biochemical
[7] = molecular target: AMP-A2B1G1 (Homo sapiens, UniProt P54646); experiment: kinase panel; assay type: biochemical
[8] = molecular target: HASPIN (Homo sapiens, UniProt Q8TF76); experiment: kinase panel; assay type: biochemical
[9] = molecular target: AURORA-A (Homo sapiens, UniProt O14965); experiment: kinase panel; assay type: biochemical
[10] = molecular target: DAPK1 (Homo sapiens, UniProt P53355); experiment: kinase panel; assay type: biochemical
[11] = molecular target: MER (Homo sapiens, UniProt Q12866); experiment: kinase panel; assay type: biochemical
[12] = molecular target: AURORA-B (Homo sapiens, UniProt Q96GD4); experiment: kinase panel; assay type: biochemical
[13] = molecular target: PI3K-GAMMA (Homo sapiens, UniProt P48736); experiment: kinase panel; assay type: biochemical
[14] = molecular target: SRC (Homo sapiens, UniProt P12931); experiment: kinase panel; assay type: biochemical
[15] = molecular target: PKA (Homo sapiens, UniProt P17612); experiment: kinase panel; assay type: biochemical
[16] = molecular target: IKK-EPSILON (Homo sapiens, UniProt Q14164); experiment: kinase panel; assay type: biochemical
[17] = molecular target: MSSK1 (Homo sapiens, UniProt Q9UPE1); experiment: kinase panel; assay type: biochemical
MSSK1, sequence (Q9UPE1 whole entry): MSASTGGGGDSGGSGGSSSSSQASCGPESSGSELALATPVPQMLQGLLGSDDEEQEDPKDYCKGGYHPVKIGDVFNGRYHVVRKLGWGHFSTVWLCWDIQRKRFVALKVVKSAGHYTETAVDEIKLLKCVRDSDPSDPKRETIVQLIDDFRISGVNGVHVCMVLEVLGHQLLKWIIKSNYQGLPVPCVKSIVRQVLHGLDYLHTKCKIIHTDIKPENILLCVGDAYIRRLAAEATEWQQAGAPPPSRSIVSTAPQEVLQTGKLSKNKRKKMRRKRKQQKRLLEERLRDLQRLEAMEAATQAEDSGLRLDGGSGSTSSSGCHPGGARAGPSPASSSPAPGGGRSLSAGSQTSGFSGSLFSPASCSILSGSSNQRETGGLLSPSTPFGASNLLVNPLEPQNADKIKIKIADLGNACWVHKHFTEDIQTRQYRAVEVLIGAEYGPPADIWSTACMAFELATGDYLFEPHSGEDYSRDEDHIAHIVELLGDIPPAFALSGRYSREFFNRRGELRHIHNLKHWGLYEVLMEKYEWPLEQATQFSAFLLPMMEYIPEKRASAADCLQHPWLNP

[18] = molecular target: IRAK1 (Homo sapiens, UniProt P51617); experiment: kinase panel; assay type: biochemical
[19] = molecular target: STK16 (Homo sapiens, UniProt O75716); experiment: kinase panel; assay type: biochemical
[20] = molecular target: CAMK1A (Homo sapiens, UniProt Q14012); experiment: kinase panel; assay type: biochemical
[21] = molecular target: MST3 (Homo sapiens, UniProt Q9Y6E0); experiment: kinase panel; assay type: biochemical
[22] = molecular target: CAMK1D (Homo sapiens, UniProt Q8IU85); experiment: kinase panel; assay type: biochemical
[23] = molecular target: CAMK2B (Homo sapiens, UniProt Q13554); experiment: kinase panel; assay type: biochemical
[24] = molecular target: EPH-A8 (Homo sapiens, UniProt P29322); experiment: kinase panel; assay type: biochemical
[25] = molecular target: NDR2 (Homo sapiens, UniProt Q9Y2H1); experiment: kinase panel; assay type: biochemical
[26] = molecular target: PKN1 (Homo sapiens, UniProt Q16512); experiment: kinase panel; assay type: biochemical
[27] = molecular target: EPH-B3 (Homo sapiens, UniProt P54753); experiment: kinase panel; assay type: biochemical
[28] = molecular target: CDK2-CYCLINA (Homo sapiens, UniProt P24941); experiment: kinase panel; assay type: biochemical
[29] = molecular target: PRAK (Homo sapiens, UniProt Q8IW41); experiment: kinase panel; assay type: biochemical
[30] = molecular target: FGFR1 (Homo sapiens, UniProt P11362); experiment: kinase panel; assay type: biochemical
[31] = molecular target: TSSK1 (Homo sapiens, UniProt Q9BXA7); experiment: kinase panel; assay type: biochemical
[32] = molecular target: P38-DELTA (Homo sapiens, UniProt O15264); experiment: kinase panel; assay type: biochemical
P38-DELTA, sequence (O15264 whole entry): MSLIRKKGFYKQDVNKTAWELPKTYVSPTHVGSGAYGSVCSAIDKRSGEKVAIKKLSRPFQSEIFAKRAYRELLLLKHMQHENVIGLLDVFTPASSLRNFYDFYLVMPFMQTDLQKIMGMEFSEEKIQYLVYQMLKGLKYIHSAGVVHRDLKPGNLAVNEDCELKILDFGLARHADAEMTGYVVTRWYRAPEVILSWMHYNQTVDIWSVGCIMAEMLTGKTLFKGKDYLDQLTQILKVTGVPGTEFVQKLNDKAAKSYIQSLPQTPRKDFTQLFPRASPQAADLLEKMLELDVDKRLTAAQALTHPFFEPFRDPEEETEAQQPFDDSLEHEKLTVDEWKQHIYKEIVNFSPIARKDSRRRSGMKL

[33] = molecular target: FGFR3 (Homo sapiens, UniProt P22607); experiment: kinase panel; assay type: biochemical
[34] = molecular target: P38-GAMMA (Homo sapiens, UniProt P53778); experiment: kinase panel; assay type: biochemical
[35] = molecular target: TTK (Homo sapiens, UniProt P33981); experiment: kinase panel; assay type: biochemical
TTK, sequence (P33981 whole entry): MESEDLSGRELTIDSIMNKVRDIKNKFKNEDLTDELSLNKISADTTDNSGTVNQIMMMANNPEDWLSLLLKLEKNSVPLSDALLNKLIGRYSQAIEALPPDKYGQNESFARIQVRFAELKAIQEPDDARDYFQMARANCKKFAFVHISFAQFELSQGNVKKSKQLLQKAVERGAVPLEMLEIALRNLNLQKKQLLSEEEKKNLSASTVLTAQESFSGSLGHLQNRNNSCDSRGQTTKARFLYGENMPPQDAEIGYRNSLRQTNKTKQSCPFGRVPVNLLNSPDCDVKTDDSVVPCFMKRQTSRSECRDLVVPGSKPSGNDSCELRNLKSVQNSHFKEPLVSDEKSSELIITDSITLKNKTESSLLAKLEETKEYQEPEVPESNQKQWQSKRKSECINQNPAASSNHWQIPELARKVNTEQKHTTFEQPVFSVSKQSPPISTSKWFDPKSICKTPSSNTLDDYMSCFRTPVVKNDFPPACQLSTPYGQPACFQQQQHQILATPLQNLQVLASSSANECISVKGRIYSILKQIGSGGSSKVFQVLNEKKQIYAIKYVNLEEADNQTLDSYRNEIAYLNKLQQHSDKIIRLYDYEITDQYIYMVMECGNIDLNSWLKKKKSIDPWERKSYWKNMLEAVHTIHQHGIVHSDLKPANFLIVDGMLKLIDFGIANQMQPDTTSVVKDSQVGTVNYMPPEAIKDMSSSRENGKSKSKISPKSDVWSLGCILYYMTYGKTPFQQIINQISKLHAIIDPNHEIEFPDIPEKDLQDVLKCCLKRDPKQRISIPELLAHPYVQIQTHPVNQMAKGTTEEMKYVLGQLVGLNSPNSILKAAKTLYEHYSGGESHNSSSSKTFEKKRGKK

[36] = molecular target: FGR (Homo sapiens, UniProt P09769); experiment: kinase panel; assay type: biochemical
[37] = molecular target: LYNB (Homo sapiens, UniProt P07948); experiment: kinase panel; assay type: biochemical
[38] = molecular target: COX-1 (Homo sapiens, UniProt P23219); experiment: COX-1 assay; assay type: biochemical
[39] = molecular target: Melanocortin MC3 receptor (Homo sapiens, UniProt P41968); experiment: Melanocortin MC3 receptor binding assay
[40] = molecular target: Muscarinic M2 (Homo sapiens, UniProt P08172); experiment: Muscarinic M2 calcium flux assay with ATP priming; assay type: cell-based
[41] = molecular target: Norepinephrine Transporter (Homo sapiens, UniProt P23975); experiment: Norepinephrine Transporter assay; assay type: binding
Norepinephrine Transporter, sequence (P23975 whole entry, species assumed): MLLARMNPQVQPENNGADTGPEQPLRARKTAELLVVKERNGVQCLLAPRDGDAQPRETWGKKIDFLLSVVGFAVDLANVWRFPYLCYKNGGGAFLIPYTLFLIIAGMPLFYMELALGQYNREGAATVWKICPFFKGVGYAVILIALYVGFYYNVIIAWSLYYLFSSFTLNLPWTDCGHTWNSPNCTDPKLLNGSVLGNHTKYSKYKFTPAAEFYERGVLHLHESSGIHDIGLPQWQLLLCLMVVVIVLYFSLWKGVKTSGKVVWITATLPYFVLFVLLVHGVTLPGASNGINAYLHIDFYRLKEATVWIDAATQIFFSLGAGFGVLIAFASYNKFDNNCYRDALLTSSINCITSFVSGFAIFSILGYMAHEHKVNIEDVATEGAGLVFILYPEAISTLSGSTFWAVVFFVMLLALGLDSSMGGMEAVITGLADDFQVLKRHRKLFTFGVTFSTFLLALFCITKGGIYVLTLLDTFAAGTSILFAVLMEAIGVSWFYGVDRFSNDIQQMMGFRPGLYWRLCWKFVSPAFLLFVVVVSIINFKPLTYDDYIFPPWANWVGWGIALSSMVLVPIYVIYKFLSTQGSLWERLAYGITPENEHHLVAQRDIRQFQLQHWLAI

[42] = molecular target: PXR Receptor (Homo sapiens, UniProt O75469); experiment: PXR Receptor antagonist assay; assay type: cell-based
PXR Receptor, sequence (O75469 whole entry): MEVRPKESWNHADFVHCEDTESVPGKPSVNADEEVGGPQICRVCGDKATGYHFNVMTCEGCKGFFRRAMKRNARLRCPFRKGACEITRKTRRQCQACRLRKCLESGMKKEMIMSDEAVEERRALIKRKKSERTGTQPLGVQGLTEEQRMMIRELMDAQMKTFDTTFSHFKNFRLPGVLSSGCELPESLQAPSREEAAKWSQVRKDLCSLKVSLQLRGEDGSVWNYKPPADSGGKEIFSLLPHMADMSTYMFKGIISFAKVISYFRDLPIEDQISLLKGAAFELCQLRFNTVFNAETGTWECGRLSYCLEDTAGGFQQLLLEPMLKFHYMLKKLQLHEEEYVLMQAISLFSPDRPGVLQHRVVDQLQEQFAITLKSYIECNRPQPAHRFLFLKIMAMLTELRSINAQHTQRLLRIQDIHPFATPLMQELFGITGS

[43] = molecular target: Serotonin 5HT2A (Homo sapiens, UniProt P28223); experiment: Serotonin 5HT2A calcium flux assay; assay type: cell-based
Serotonin 5HT2A, sequence (P28223 whole entry): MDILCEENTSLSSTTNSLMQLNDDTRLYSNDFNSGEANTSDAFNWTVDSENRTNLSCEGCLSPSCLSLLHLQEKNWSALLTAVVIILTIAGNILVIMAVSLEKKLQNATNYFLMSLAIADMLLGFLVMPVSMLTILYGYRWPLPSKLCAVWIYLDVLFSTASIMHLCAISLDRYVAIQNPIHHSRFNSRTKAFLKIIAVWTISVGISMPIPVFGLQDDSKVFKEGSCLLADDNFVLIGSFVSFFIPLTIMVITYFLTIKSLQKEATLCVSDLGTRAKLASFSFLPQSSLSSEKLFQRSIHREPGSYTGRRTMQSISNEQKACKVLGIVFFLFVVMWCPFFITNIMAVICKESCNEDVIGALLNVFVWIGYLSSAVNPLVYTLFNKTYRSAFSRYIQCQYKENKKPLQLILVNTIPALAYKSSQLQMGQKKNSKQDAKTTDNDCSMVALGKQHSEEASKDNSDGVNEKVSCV

[44] = test system: panel of 250 protein kinases; experiment: Profiling against a panel of 250 protein kinases; assay type: biochemical; conditions: 1 μM EAI045

inhibition at 1 µM [1]: 0%
inhibition at 1 µM [2]: 0%
inhibition at 1 µM [3]: 0%
inhibition at 1 µM [4]: 0%
inhibition at 1 µM [5]: 0%
inhibition at 1 µM [6]: 0%
inhibition at 1 µM [7]: 0%
inhibition at 1 µM [8]: 1%
inhibition at 1 µM [9]: 0%
inhibition at 1 µM [10]: 0%
inhibition at 1 µM [11]: 8%
inhibition at 1 µM [12]: 4%
inhibition at 1 µM [13]: 0%
inhibition at 1 µM [14]: 0%
inhibition at 1 µM [15]: 3%
inhibition at 1 µM [16]: 0%
inhibition at 1 µM [17]: 0%
inhibition at 1 µM [18]: 4%
inhibition at 1 µM [19]: 0%
inhibition at 1 µM [20]: 0%
inhibition at 1 µM [21]: 0%
inhibition at 1 µM [22]: 0%
inhibition at 1 µM [23]: 0%
inhibition at 1 µM [24]: 0%
inhibition at 1 µM [25]: 0%
inhibition at 1 µM [26]: 0%
inhibition at 1 µM [27]: 0%
inhibition at 1 µM [28]: 1%
inhibition at 1 µM [29]: 0%
inhibition at 1 µM [30]: 5%
inhibition at 1 µM [31]: 2%
inhibition at 1 µM [32]: 0%
inhibition at 1 µM [33]: 1%
inhibition at 1 µM [34]: 2%
inhibition at 1 µM [35]: 0%
inhibition at 1 µM [36]: 0%
inhibition at 1 µM [37]: 3%
IC50 [38]: > 30 µM
IC50 [39]: > 30 µM
IC50 [40]: > 30 µM
IC50 [41]: > 30 µM
IC50 [42]: > 3 µM
IC50 [43]: > 30 µM
SMILES: O=C(Nc1nccs1)C(c1cc(F)ccc1O)N1Cc2ccccc2C1=O (centres unmarked) [EAI045, 2-(5-fluoro-2-hydroxyphenyl)-2-(1-oxo-2,3-dihydro-1H-isoindol-2-yl)-N-(1,3-thiazol-2-yl)acetamide]
inhibition of other kinases in the panel [44]: ≤ 20%
